Results on ten compounds are retold here after patent US4251546A, “Process for killing internal helminths using certain 1,1-bis-(2-substituted-3-nitrophenyl)alkane or alkylene derivatives” (ICI Australia Limited, priority 1977, dated 1981).

The assay deals with sheep liver fluke (Fasciola hepatica). The assay is described as follows: Fluke egg count in faeces and adult fluke count in liver of infected sheep after a single s/c dose (Table 3). Format: in vivo. As to conditions: for POST MORTEM RESULT No. of adult fluke: liver. The method, then:
Compositions suitable for use as experimental injectable solutions were prepared by formulating the compounds as solutions of their salts either in water or in a mixture of water and ethylene glycol or water and polyethylene glycol (PEG200).
Compositions prepared by the method of Example 10 were used as a single dose to test sheep infected with sheep liver fluke (Fasciola hepatica). The number of liver fluke eggs in the faeces was measured at the time of treatment and at selected intervals up to 30 days after treatment. The sheep were killed and the number of adult fluke in the liver counted. The amount and structure of the active ingredient in each composition and the results of treatment of a sheep with that composition are given in the Table 3 below. The compositions were administered by sub-cutaneous injection (s/c).

Turning to `O=[N+]([O-])c1cc(Cl)cc(Cc2cc(Cl)cc([N+](=O)[O-])c2O)c1O` [Compound 1], under “single dose 12.5 mg/kg”, the “FAECAL EGG COUNT, day 7” value came out at 0 Eggs/g faeces; the “FAECAL EGG COUNT, day 14” value came out at 50 Eggs/g faeces; the “POST MORTEM RESULT No. of adult fluke” value was 0. Besides, the “FAECAL EGG COUNT, day 30” value (single dose 12.5 mg/kg, day 30) turned out to be 0 Eggs/g faeces.
Consider `O=[N+]([O-])c1cc(Cl)cc(Cc2cc(Br)cc([N+](=O)[O-])c2O)c1O` [Compound 3], for which, where the note is “single dose 12.5 mg/kg”, the “FAECAL EGG COUNT, day 7” value amounted to 0 Eggs/g faeces; the “FAECAL EGG COUNT, day 14” value is 0 Eggs/g faeces; the “POST MORTEM RESULT No. of adult fluke” value stood at 1.
As for `CC(c1cc(Cl)cc([N+](=O)[O-])c1O)c1cc(Cl)cc([N+](=O)[O-])c1O` [Compound 7], the “FAECAL EGG COUNT, day 7” value worked out at 0 Eggs/g faeces (single dose 5.0 mg/kg), 0 Eggs/g faeces (single dose 8.0 mg/kg), 20 Eggs/g faeces (single dose 12.5 mg/kg) and 0 Eggs/g faeces (single dose 20.0 mg/kg). In addition, the “FAECAL EGG COUNT, day 14” value is, setting by setting: (single dose 5.0 mg/kg) 50 Eggs/g faeces; (single dose 8.0 mg/kg) 0 Eggs/g faeces; (single dose 12.5 mg/kg) 0 Eggs/g faeces. For the same compound, the “POST MORTEM RESULT No. of adult fluke” value runs as follows: (single dose 8.0 mg/kg) 0; (single dose 12.5 mg/kg) 0; (single dose 20.0 mg/kg) 0. The “FAECAL EGG COUNT, day 13” value (single dose 20.0 mg/kg, day 13) came to 0 Eggs/g faeces.
Regarding `CC(c1cc(Cl)cc([N+](=O)[O-])c1O)c1cc(Br)cc([N+](=O)[O-])c1O` (stereo not shown) [Compound 8, 1-(5-Bromo-2-hydroxy-3-nitrophenyl)-1-(5-chloro-2-hydroxy-3-nitrophenyl)ethane], the “FAECAL EGG COUNT, day 7” value reads like this: (single dose 4.0 mg/kg) 110 Eggs/g faeces; (single dose 6.0 mg/kg) 20 Eggs/g faeces; (single dose 8.0 mg/kg) 0 Eggs/g faeces; (single dose 12.5 mg/kg) 0 Eggs/g faeces. Besides, the “FAECAL EGG COUNT, day 14” value is listed as 80 Eggs/g faeces (single dose 4.0 mg/kg), 10 Eggs/g faeces (single dose 6.0 mg/kg), 0 Eggs/g faeces (single dose 8.0 mg/kg) and 0 Eggs/g faeces (single dose 12.5 mg/kg). The “POST MORTEM RESULT No. of adult fluke” value is, setting by setting: (single dose 6.0 mg/kg) 0; (single dose 8.0 mg/kg) 0; (single dose 12.5 mg/kg) 0.
Take `CC(c1cc(Br)cc([N+](=O)[O-])c1O)c1cc(Br)cc([N+](=O)[O-])c1O` [Compound 9]: for the setting “single dose 12.5 mg/kg”, the “FAECAL EGG COUNT, day 7” value is 0 Eggs/g faeces; the “FAECAL EGG COUNT, day 14” value stood at 0 Eggs/g faeces; the “POST MORTEM RESULT No. of adult fluke” value was found to be 0.
As to `CC(c1cc(Br)cc([N+](=O)[O-])c1O)c1cc(I)cc([N+](=O)[O-])c1O` (stereo not shown) [Compound 10], for the setting “single dose 12.5 mg/kg”, the “FAECAL EGG COUNT, day 7” value is reported as 10 Eggs/g faeces and the “FAECAL EGG COUNT, day 14” value was determined as 90 Eggs/g faeces.
`O=[N+]([O-])c1cc(Cl)cc(C(c2cc(Cl)cc([N+](=O)[O-])c2O)C(Cl)(Cl)Cl)c1O` [Compound 11]: where the note is “single dose 5.0 mg/kg”, the “FAECAL EGG COUNT, day 7” value was determined as 50 Eggs/g faeces; the “FAECAL EGG COUNT, day 14” value is reported as 0 Eggs/g faeces; the “POST MORTEM RESULT No. of adult fluke” value is listed as 0.
As for `O=[N+]([O-])c1cc(F)cc(C(=C(Cl)Cl)c2cc(F)cc([N+](=O)[O-])c2O)c1O` [Compound 16], where the note is “single dose 12.5 mg/kg”, the “FAECAL EGG COUNT, day 7” value stood at 10 Eggs/g faeces; the “FAECAL EGG COUNT, day 14” value is given as 10 Eggs/g faeces; the “POST MORTEM RESULT No. of adult fluke” value is on record as 0.
For the compound `CC(=O)Oc1c(C(=C(Cl)Cl)c2cc(Cl)cc([N+](=O)[O-])c2OC(C)=O)cc(Cl)cc1[N+](=O)[O-]` [Compound 17], where the note is “single dose 12.0 mg/kg”, the “FAECAL EGG COUNT, day 7” value turned out to be 110 Eggs/g faeces; the “FAECAL EGG COUNT, day 14” value amounted to 0 Eggs/g faeces; the “POST MORTEM RESULT No. of adult fluke” value turned out to be 0.
With `COC(=O)Oc1c(C(=C(Cl)Cl)c2cc(Cl)cc([N+](=O)[O-])c2OC(=O)OC)cc(Cl)cc1[N+](=O)[O-]` [Compound 18], where the note is “single dose 12.0 mg/kg”, the “FAECAL EGG COUNT, day 7” value is 60 Eggs/g faeces; the “FAECAL EGG COUNT, day 14” value was determined as 0 Eggs/g faeces; the “POST MORTEM RESULT No. of adult fluke” value was determined as 1.
